What all share (assay type): biochemical
One assay deals with JAK1 (Homo sapiens (Human), UniProt P23458). Briefly: JAK1 Inhibition Assay (Example B, Omnia kinase fluorescence peptide substrate assay). From the text:
(§1) The assays described in Examples A, B, C and D for the determination of Tyk2, JAK1, JAK2 and JAK3 kinase activity, respectively, utilized the Omnia® Kinase fluorescence peptide substrate-based technology (Invitrogen). The specific components of the assay mixture are described in Examples A, B, C and D. In these assays, Mg^2+ is chelated upon phosphorylation of the Omnia peptide by the kinase to form a bridge between the chelation-enhanced fluorophore Sox and the phosphate, resulting in an increase in fluorescence emission at 485 nm when excited at […]. The reactions were therefore read at excitation 360 nm and emission was measured at 485 nm every 50 seconds for 45 minutes using a PerkinElmer EnVision Multilabel Plate Reader.
(§2) The final buffer conditions for Tyk2, JAK1, JAK2, and JAK3 assays were as follows: 25 mM HEPES, pH 7.4, 10 mM MgCl2, 0.01% Triton X-100 and 1 mM DTT.
(§3) Two-μL aliquots of these were transferred to a fresh plate for a ten-fold intermediate dilution with assay buffer. Five-μL aliquots of the diluted compounds were then transferred to 20-μL of assay mixtures described in Examples A, B, C and D for a final concentration of DMSO of 2%. […] For each plate, percent of control (POC) values were calculated for each well according to the following equation: […]
(§4) IC50's were estimated from the POC's using a standard 4-parameter logistic model:
(§5) The IC50 is defined as the concentration of inhibitor at which the POC equals 50 for the fitted curve.
Compounds of Formula I were screened for their ability to inhibit JAK1 using the general enzyme inhibition assay method, in which the assay mixture contained 1 mM ATP, 8 μM Omnia® Y12 peptide (Catalog # IVGN KPZ3121C; Invitrogen Corporation, Carlsbad, Calif.) and 12.5 nM JAK1 in a total volume of 25 μL. JAK1 was purchased from Invitrogen Corporation, Carlsbad, Calif. (catalog # IVGN PV4775).

For another assay, the target named is JAK3 (Homo sapiens (Human), UniProt P52333). In words: JAK3 Inhibition Assay (Example D, Omnia kinase fluorescence peptide substrate assay).
Text: as §1, §2, §3, §4, §5
Compounds of Formula I were screened for their ability to inhibit JAK3 using the general enzyme inhibition assay method, in which the assay mixture contained 1 mM ATP, 10 μM Omnia® Y7 peptide (Catalog # IVGN KNZ3071C, Invitrogen Corporation, Carlsbad, Calif.) and 2 nM JAK3 in a total volume of 25 μL. JAK3 was purchased from Invitrogen Corporation, Carlsbad, Calif. (catalog # IVGN PV4080).

The target of another assay is Human Tyk2 kinase domain (Homo sapiens (Human), UniProt P29597). In words: Tyk2 Inhibition Assay (Example A, Omnia kinase fluorescence peptide substrate assay). To be noted: TYK2 Enzyme IC50 1 mM ATP, averaged IC50 ranges.
Text: as §1, §2, §3, §4, §5
Compounds of Formula I were screened for their ability to inhibit Tyk2 using the general enzyme inhibition assay method, in which the assay mixture contained 1 mM ATP, 8 μM Omnia Y12 peptide (Catalog # IVGN KPZ3121C; Invitrogen Corporation, Carlsbad, Calif.) and 1 nM Tyk2 in a total volume of 25 μL. Human Tyk2 kinase domain, comprising amino acids 886 to 1187 with 10 additional histidine residues (histidine tag) on the carboxy terminus, was expressed and purified from bacculovirus in-house at Array BioPharma Inc. (Boulder, Colo.). The histidine tag was cleaved after purification using standard conditions.

Where [1] appears, read: JAK1 Enzyme IC50 1 mM ATP, 1 mM ATP, averaged IC50 ranges.

The results in this text go back to patent publication US10189845B2, “4,6-substituted-pyrazolo[1,5-a]pyrazines as janus kinase inhibitors” (ARRAY BIOPHARMA INC., priority 2014, dated 2019).

For orientation: IC50 means the midpoint of a concentration-inhibition curve. Lower therefore signals greater potency.

Like-named read-outs stand apart in the source and are kept apart here.

JAK1, sequence (P23458 whole entry): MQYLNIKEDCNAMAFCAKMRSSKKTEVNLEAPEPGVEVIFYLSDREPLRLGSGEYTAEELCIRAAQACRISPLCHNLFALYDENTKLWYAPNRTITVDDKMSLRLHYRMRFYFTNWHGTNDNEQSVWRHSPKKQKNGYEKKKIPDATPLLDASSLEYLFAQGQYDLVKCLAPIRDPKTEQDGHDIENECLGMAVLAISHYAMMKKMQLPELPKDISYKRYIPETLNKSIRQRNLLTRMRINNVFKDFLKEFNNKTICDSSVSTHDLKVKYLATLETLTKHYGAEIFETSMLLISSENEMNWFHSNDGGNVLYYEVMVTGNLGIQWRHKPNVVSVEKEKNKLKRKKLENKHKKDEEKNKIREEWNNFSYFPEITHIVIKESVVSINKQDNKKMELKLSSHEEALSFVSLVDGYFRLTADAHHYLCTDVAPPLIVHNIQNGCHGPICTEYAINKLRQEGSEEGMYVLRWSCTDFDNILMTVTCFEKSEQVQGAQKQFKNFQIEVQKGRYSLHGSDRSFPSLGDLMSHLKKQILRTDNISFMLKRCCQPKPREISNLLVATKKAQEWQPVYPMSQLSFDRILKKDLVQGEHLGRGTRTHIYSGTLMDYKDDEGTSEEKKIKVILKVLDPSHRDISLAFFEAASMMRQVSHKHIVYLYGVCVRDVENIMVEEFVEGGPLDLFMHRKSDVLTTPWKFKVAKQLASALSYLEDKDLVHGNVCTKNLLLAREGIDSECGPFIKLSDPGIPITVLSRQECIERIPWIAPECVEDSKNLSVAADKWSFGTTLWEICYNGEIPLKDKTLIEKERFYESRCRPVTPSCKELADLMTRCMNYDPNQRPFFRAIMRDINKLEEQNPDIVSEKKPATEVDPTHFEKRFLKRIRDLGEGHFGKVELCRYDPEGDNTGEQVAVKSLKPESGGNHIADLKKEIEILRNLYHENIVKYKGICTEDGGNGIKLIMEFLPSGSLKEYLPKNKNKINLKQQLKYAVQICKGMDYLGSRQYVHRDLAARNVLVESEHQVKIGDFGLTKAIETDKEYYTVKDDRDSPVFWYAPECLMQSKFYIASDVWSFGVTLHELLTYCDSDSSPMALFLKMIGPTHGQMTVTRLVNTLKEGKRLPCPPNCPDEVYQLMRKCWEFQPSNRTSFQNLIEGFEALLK
Human Tyk2 kinase domain, sequence (P29597 886-1187): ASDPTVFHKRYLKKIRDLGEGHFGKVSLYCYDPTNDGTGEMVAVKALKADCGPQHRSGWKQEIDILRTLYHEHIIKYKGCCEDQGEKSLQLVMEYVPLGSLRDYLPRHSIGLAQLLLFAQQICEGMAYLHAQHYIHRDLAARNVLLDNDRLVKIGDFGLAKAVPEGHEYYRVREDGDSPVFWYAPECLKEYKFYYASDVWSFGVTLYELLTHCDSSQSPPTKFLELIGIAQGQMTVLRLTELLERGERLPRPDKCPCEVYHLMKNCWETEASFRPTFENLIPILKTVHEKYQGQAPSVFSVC
JAK3, sequence (P52333 whole entry): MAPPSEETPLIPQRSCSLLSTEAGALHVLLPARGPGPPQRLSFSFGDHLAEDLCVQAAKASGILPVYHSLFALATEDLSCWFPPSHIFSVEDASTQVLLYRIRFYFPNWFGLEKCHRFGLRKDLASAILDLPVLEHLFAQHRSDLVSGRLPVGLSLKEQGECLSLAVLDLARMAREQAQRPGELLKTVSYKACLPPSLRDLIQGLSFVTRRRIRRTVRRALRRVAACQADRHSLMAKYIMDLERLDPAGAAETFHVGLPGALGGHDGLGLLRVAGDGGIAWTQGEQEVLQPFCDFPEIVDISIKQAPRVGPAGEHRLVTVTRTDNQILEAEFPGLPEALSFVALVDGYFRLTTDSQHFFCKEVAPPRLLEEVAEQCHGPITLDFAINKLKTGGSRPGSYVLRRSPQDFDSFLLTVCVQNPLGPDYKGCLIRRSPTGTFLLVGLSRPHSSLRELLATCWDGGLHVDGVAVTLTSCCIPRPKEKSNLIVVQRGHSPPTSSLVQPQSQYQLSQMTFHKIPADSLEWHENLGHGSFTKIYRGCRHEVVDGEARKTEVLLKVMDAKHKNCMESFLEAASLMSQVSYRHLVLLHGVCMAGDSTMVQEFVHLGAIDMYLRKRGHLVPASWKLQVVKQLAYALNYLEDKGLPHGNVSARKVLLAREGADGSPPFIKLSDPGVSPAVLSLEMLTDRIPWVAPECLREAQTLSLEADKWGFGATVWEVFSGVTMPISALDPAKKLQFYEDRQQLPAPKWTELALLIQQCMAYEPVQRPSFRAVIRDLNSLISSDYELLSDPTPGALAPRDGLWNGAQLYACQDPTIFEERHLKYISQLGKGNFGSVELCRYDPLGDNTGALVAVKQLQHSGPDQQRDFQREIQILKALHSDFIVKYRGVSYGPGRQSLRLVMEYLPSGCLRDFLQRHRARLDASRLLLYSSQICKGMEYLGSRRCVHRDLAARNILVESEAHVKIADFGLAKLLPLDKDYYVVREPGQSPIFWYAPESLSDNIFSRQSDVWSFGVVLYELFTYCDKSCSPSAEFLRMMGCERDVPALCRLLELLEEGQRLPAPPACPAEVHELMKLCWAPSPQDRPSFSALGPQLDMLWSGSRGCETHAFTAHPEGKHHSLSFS

As to `CCC(CC)n1cc(-c2nc(-c3cnn([C@@H]4COC[C@H]4O)c3)cn3nccc23)cn1` (single isomer, unassigned) [Example 159], the IC50 against JAK1 was 100 to 1000 nM.

In turn, `CCC(CC)n1cc(-c2nc(-c3cnn([C@H]4COC[C@@H]4O)c3)cn3nccc23)cn1` (single isomer, unassigned) [Example 160] registered a concentration for half-maximal inhibition (IC50) on JAK1 of 1000 to 10000 nM.

For `CCC(C1CC1)n1cc(-c2nc(-c3cnn(C[C@@H](O)CO)c3)cn3nccc23)cn1` (single isomer, unassigned) [Example 213], the 50% inhibitory concentration (IC50) is 100 to 1000 nM against JAK1, 1000 to 10000 nM at JAK3 and 10 to 100 nM on Human Tyk2 kinase domain.

Compound `CCC(CC)n1cc(-c2nc(-c3cnn(CC4CNC(=O)O4)c3)cn3nccc23)cn1` (centres unmarked) [Example 8, 5-((4-(4-(1-(pentan-3-yl)-1H-pyrazol-4-yl)pyrazolo[1,5-a]pyrazin-6-yl)-1H-pyrazol-1-yl)methyl)oxazolidin-2-one] displayed an IC50 on JAK3 of 1000 to 10000 nM.

Turning to `CCC(CC)n1cc(-c2nc(-c3cnn(C4CS(=O)(=O)C4)c3)cn3nccc23)cn1` [Example 13, 3-(4-(4-(1-(pentan-3-yl)-1H-pyrazol-4-yl)pyrazolo[1,5-a]pyrazin-6-yl)-1H-pyrazol-1-yl)thietane 1,1-dioxide], the IC50 at JAK1 was in the range of 100 to 1000 nM; against JAK3, 1000 to 10000 nM; against Human Tyk2 kinase domain, 10 to 100 nM.

Consider `CCC(CC)n1cc(-c2nc(-c3cnn(CCS(N)(=O)=O)c3)cn3nccc23)cn1` [Example 24, 2-(4-(4-(1-(pentan-3-yl)-1H-pyrazol-4-yl)pyrazolo[1,5-a]pyrazin-6-yl)-1H-pyrazol-1-yl)ethanesulfonamide], for which the IC50 lay in the range of 100 to 1000 nM against JAK1 and 1000 to 10000 nM against JAK3.

Turning to `CCC(CC)n1cc(-c2nc(-c3cnn(C[C@H]4CCCN4)c3)cn3nccc23)cn1` [Example 27, (R)-4-(1-(pentan-3-yl)-1H-pyrazol-4-yl)-6-(1-(pyrrolidin-2-ylmethyl)-1H-pyrazol-4-yl)pyrazolo[1,5-a]pyrazine], the IC50 against JAK1 and on JAK3 was 1000 to 10000 nM each time.

With `CCC(CC)n1cc(-c2nc(-c3cnn(C[C@@H]4CCCN4)c3)cn3nccc23)cn1` [Example 28, (S)-4-(1-(pentan-3-yl)-1H-pyrazol-4-yl)-6-(1-(pyrrolidin-2-ylmethyl)-1H-pyrazol-4-yl)pyrazolo[1,5-a]pyrazine], the IC50 on JAK1 and against JAK3 was 1000 to 10000 nM throughout.

As for `CCC(CC)n1cc(-c2nc(-c3cnn(C4CCN(C(C)=O)CC4)c3)cn3nccc23)cn1` [Example 31, 1-(4-(4-(4-(1-(pentan-3-yl)-1H-pyrazol-4-yl)pyrazolo[1,5-a]pyrazin-6-yl)-1H-pyrazol-1-yl)piperidin-1-yl)ethanone], the results for the IC50 against JAK1, on JAK3 and on Human Tyk2 kinase domain were 100 to 1000 nM, 1000 to 10000 nM and 10 to 100 nM, respectively.

As to `CCC(CC)n1cc(-c2nc(-c3cnn(C4CCN(S(C)(=O)=O)CC4)c3)cn3nccc23)cn1` [Example 32, 6-(1-(1-(methylsulfonyl)piperidin-4-yl)-1H-pyrazol-4-yl)-4-(1-(pentan-3-yl)-1H-pyrazol-4-yl)pyrazolo[1,5-a]pyrazine], the IC50 was in the range of 10 to 100 nM against JAK1 and 1000 to 10000 nM on JAK3.

On to `CCC(CC)n1cc(-c2nc(-c3cnn(C4CCN(C(=O)COC)CC4)c3)cn3nccc23)cn1` [Example 33, 2-methoxy-1-(4-(4-(4-(1-(pentan-3-yl)-1H-pyrazol-4-yl)pyrazolo[1,5-a]pyrazin-6-yl)-1H-pyrazol-1-yl)piperidin-1-yl)ethanone], for which the IC50 at JAK1 was in the range of 100 to 1000 nM; against JAK3, 1000 to 10000 nM.

For `CCC(CC)n1cc(-c2nc(-c3cnn(C4CCN(C(=O)NC)CC4)c3)cn3nccc23)cn1` [Example 34, N-methyl-4-(4-(4-(1-(pentan-3-yl)-1H-pyrazol-4-yl)pyrazolo[1,5-a]pyrazin-6-yl)-1H-pyrazol-1-yl)piperidine-1-carboxamide], the IC50 at JAK1 was 10 to 100 nM; at JAK3, 1000 to 10000 nM; on Human Tyk2 kinase domain it was 10 to 100 nM.

As for `CCC(CC)n1cc(-c2nc(-c3cnn(C4CCN(C(=O)CN)CC4)c3)cn3nccc23)cn1` [Example 36, 2-amino-1-(4-(4-(4-(1-(pentan-3-yl)-1H-pyrazol-4-yl)pyrazolo[1,5-a]pyrazin-6-yl)-1H-pyrazol-1-yl)piperidin-1-yl)ethanone], the IC50 lay in the range of 100 to 1000 nM at JAK1 and 1000 to 10000 nM at JAK3.

In the case of `CCC(CC)n1cc(-c2nc(-c3cnn(C4CN(S(C)(=O)=O)C4)c3)cn3nccc23)cn1` [Example 37, 6-(1-(1-(methylsulfonyl)azetidin-3-yl)-1H-pyrazol-4-yl)-4-(1-(pentan-3-yl)-1H-pyrazol-4-yl)pyrazolo[1,5-a]pyrazine], the values for the IC50 against JAK1, at JAK3 and on Human Tyk2 kinase domain were 100 to 1000 nM, 1000 to 10000 nM and 10 to 100 nM, respectively.

Turning to `CCC(CC)n1cc(-c2nc(-c3cnn(C4CN(C(C)=O)C4)c3)cn3nccc23)cn1` [Example 38, 1-(3-(4-(4-(1-(pentan-3-yl)-1H-pyrazol-4-yl)pyrazolo[1,5-a]pyrazin-6-yl)-1H-pyrazol-1-yl)azetidin-1-yl)ethanone], the IC50 against JAK1 lay within 100 to 1000 nM; on JAK3 it was 1000 to 10000 nM.

As to `CCC1(n2cc(-c3nc(-c4cnn(C)c4)cn4nccc34)cn2)CN(S(=O)(=O)C(F)(F)F)C1` [Example 48, 4-(1-(3-ethyl-1-((trifluoromethyl)sulfonyl)azetidin-3-yl)-1H-pyrazol-4-yl)-6-(1-methyl-1H-pyrazol-4-yl)pyrazolo[1,5-a]pyrazine], the IC50 against JAK1 lay within 10 to 100 nM; against JAK3, 1000 to 10000 nM.

With `CCC(CC)n1cc(-c2nc(-c3cnn(CC(CO)CO)c3)cn3nccc23)cn1` [Example 61, 2-((4-(4-(1-(pentan-3-yl)-1H-pyrazol-4-yl)pyrazolo[l,5-a]pyrazin-6-yl)-1H-pyrazol-1-yl)methyl)propane-1,3-diol], the IC50 against JAK1 (setting [1]) is 100 to 1000 nM; against JAK3 it was 1000 to 10000 nM.

For `CC(C)[C@H](C)n1cc(-c2nc(-c3cnn(C[C@@H](O)CO)c3)cn3nccc23)cn1` [Example 80, (R)-3-(4-(4-(1-((S)-3-methylbutan-2-yl)-1H-pyrazol-4-yl)pyrazolo[1,5-a]pyrazin-6-yl)-1H-pyrazol-1-yl)propane-1,2-diol], at JAK3, the IC50 fell in the range of 1000 to 10000 nM.

For the compound `CC[C@@H](C)n1cc(-c2nc(-c3cnn(C(CO)CO)c3)cn3nccc23)cn1` [Example 85, (R)-2-(4-(4-(1-(sec-butyl)-1H-pyrazol-4-yl)pyrazolo[1,5-a]pyrazin-6-yl)-1H-pyrazol-1-yl)propane-1,3-diol], the IC50 against JAK1 fell in the range of 1000 to 10000 nM; at JAK3, 1000 to 10000 nM; on Human Tyk2 kinase domain it was 100 to 1000 nM.

In the case of `CC1(C)CCC[C@@H]1n1cc(-c2nc(-c3cnn(C[C@@H](O)CO)c3)cn3nccc23)cn1` [Example 95, (R)-3-(4-(4-(1-((S)-2,2-dimethylcyclopentyl)-1H-pyrazol-4-yl)pyrazolo[1,5-a]pyrazin-6-yl)-1H-pyrazol-1-yl)propane-1,2-diol], the IC50 at JAK1 (setting [1]) and at Human Tyk2 kinase domain was 1000 to 10000 nM in each case.

In turn, `CCC(CC)n1cc(-c2nc(-c3cnn([C@H]4C[C@H](C(=O)NCCO)C4)c3)cn3nccc23)cn1` [Example 171, (1r,3r)-N-(2-hydroxyethyl)-3-(4-(4-(1-(pentan-3-yl)-1H-pyrazol-4-yl)pyrazolo[1,5-a]pyrazin-6-yl)-1H-pyrazol-1-yl)cyclobutanecarboxamide] registered an IC50 against JAK3 of 1000 to 10000 nM.

On JAK3, `CC[C@H]([C@@H]1CC1(F)F)n1cc(-c2nc(-c3cnn(C[C@@H](O)CO)c3)cn3nccc23)cn1` [Example 204, (R)-3-(4-(4-(1-((R)-1-((S)-2,2-difluorocyclopropyl)propyl)-1H-pyrazol-4-yl)pyrazolo[1,5-a]pyrazin-6-yl)-1H-pyrazol-1-yl)propane-1,2-diol] gave an IC50 of 1000 to 10000 nM.
